# Article doi:10.1101/2025.11.13.688260v1 (biorxiv, 2025)
# Target: human CBL-B (Homo sapiens, UniProt Q13191)
# Test: TR-FRET ubiquitin ligase assay
# Assay type: biochemical
# Sequence of human CBL-B (Q13191 whole entry): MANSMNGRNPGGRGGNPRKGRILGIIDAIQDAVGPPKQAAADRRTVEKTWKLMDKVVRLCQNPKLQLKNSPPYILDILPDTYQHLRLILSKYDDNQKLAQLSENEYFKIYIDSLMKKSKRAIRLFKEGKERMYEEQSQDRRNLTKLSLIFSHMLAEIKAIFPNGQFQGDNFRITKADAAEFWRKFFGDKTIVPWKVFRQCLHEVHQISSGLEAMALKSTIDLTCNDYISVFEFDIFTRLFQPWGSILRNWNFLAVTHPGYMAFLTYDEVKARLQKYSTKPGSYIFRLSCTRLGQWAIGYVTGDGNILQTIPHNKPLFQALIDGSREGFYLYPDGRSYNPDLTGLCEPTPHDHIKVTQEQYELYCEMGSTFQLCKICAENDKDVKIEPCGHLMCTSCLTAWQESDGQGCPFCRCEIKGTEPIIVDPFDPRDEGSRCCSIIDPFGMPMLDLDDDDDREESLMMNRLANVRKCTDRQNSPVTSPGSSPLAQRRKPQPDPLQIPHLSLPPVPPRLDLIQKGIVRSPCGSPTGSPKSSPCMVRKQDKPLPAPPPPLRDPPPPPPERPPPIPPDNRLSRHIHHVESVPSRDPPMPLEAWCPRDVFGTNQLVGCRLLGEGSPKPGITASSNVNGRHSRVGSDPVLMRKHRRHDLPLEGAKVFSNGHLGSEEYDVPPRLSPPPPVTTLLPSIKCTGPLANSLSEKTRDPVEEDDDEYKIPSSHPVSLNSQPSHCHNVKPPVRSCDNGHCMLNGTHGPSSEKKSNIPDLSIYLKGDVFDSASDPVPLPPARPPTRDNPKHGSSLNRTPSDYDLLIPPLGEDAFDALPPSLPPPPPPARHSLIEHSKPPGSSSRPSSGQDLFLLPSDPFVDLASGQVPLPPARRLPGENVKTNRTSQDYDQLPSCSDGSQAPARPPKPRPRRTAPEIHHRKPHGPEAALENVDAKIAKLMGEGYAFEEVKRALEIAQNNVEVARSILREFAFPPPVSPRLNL
row,IC50 [nM],Compound
1,1190,"Cn1cnnc1[C@]1(c2cccc(-c3cc4ccccc4[nH]c3=O)c2)C[C@H](C)C1 [compound 4, Cmpd. 4]"
2,16.8,"C[C@H]1CCCN(Cc2cccc3cc(-c4cccc([C@]5(c6nncn6C)C[C@@H](C)C5)c4)c(=O)[nH]c23)C1 [compound 6, Cmpd. 6]"
3,19.7,"CC(NC1CCCC1)c1ccc(F)c2cc(-c3cccc([C@]4(c5nncn5C)C[C@@H](C)C4)c3)c(=O)[nH]c12 (stereo partly drawn) [compound 12, Cmpd. 12]"
